Laboratory results published in PMC8548483, “Bioactive compounds from an endophytic fungi Nigrospora aurantiaca” (Botanical Studies, 2021).
Entries after “also recorded” stand apart in the source; their conditions may differ.

Tests used:
Type in all cases: cell-based, murine
[1] = system: NO production in LPS-activated microglial BV-2 cells; experiment: Inhibition of NO production in LPS-activated microglial BV-2 cells (Griess method); conditions: for Inhibitory effect on NO production (in words): LPS-activated BV-2 cells; for IC50: Mus musculus, LPS (150 ng/mL)-stimulated BV-2 cells, 15 min pretreatment, 24 h, mean ± SD (n = 3), read-out: IC50 (inhibitory effect on NO production)
Procedure: (§1) The murine BV-2 microglial cell line cultured followed the procedure of our previous reports (Hsiao et al. [2020]). In summary, BV-2 cells were cultured with DMEM containing Fetal Bovine Serum (FBS), streptomycin/penicillin, Lglutamine and HEPES at 37 °C, humidified 5% CO2. Prior to the study, BV-2 cells were cultured in FBS media (5%), pretreated with carrier media or various concentrations of compounds for 15 min, and eventually collected after 24 h of stimulation with LPS (150 ng/mL).
The level of nitric oxide (NO) metabolites from the production of activated BV-2 cells was measured with reference to the Griess method (Wang et al. [2018]).

[2] = Cell viability (MTT test) in BV-2 cells; conditions: mouse, BV-2 microglial cells, 24 h, MTT, mean ± SD (n = 3), read-out: Cell viabillity (%)
Procedure: as §1
(§2) As in our previous report, cellular viability was assessed using MTT test where BV-2 cells, along with other compounds were treated for 24 h (Hsiao et al. [2020]).

[3] = system: microglial BV-2 cells; experiment: Cell viability (MTT test) in BV-2 cells; conditions: 10 µM
Procedure: as §1, §2

Row | SMILES | Inhibitory effect on NO production (in words) [1] | IC50 [1] | viability at 24 h, 10 µM [2] | Cytotoxicity against microglial BV-2 cells (in words) [3]
1 | C/C=C/C=C(\CO)C(/C=C/C)CO (stereo not shown) [Compound 1, nigaurdiol] | weak inhibitory effects; also recorded: weak inhibitory activities | 32.2 ± 3.3 µM | 103 ± 8.8% | no cytotoxic activity
2 | Cc1cc(O)c2c(c1)O[C@@]1(C)OC[C@H](C)C1C2 (stereo partly shown) [Compound 2, xyloketal K] | weak inhibitory effects; also recorded: weak inhibitory activities | 30.1 ± 3 µM | 98.3 ± 7.6% | no cytotoxic activity
3 | COC1=CC(=O)c2c(O)c3c(c(O)c2C1=O)C[C@](C)(O)[C@H](O)[C@H]3O [Compound 3, bostrycin] | potently inhibitory effects; also recorded: potential inhibitory activities | 2.3 ± 0.3 µM | 10.7 ± 0.8% | significant cytotoxicity
4 | COC1=CC(=O)c2c(O)c3c(c(O)c2C1=O)C[C@](C)(O)[C@H](O)C3 [Compound 4, deoxybostrycin] | potently inhibitory effects; also recorded: potential inhibitory activities | 2.5 ± 0.5 µM | 11.3 ± 1.3% | significant cytotoxicity
5 | COc1cc(O)c2c(c1O)[C@@H](O)[C@@H]1C[C@](C)(O)[C@H](O)C[C@@H]1C2=O [Compound 5, xylanthraquinone] | weak inhibitory effects; also recorded: weak inhibitory activities | 32.1 ± 6.7 µM | 103 ± 6.9% | no cytotoxic activity
6 | CC(C)[C@@H](C)/C=C/[C@@H](C)[C@H]1CC[C@H]2C3=CC=C4C[C@@H](O)CC[C@]4(C)[C@H]3CC[C@]12C [Compound 6, ergosterol] | potently inhibitory effects; also recorded: potential inhibitory activities; also recorded: considerable inhibitory effect | 7.2 ± 1.4 µM | 90.8 ± 6.7% | no significant cytotoxic effect
7 | COc1cc(/C=C/C(=O)CC(=O)/C=C/c2ccc(O)c(OC)c2)ccc1O [Curcumin, curcumin, reference compound] |  | 6 ± 0.3 µM |  | 
